Measurements as given in ChEMBL document CHEMBL1201862, “PubChem BioAssay data set” (2004).
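Compound exposure: 48 hours, 5 concentrations, 96-well plates. GI50 is the concentration that inhibits growth by half.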 The source made the active and inactive calls. No stated cut-off is given here; in the data, active = GI50 up to about 1.1 µM and inactive = higher.

Experiments:
Test in all cases: NCI-60 cell line screen, 48 h
[1] = test system: CAKI-1
[2] = test system: UO-31
[3] = test system: NCI-H226
[4] = test system: SW-620
[5] = test system: SF-295
[6] = test system: NCI-H522
[7] = test system: MDA-MB-231
[8] = test system: OVCAR-8
[9] = test system: EKVX
[10] = test system: 786-0
[11] = test system: OVCAR-3
[12] = test system: NCI-H23
[13] = test system: CCRF-CEM
[14] = test system: COLO 205
[15] = test system: IGROV-1
[16] = test system: M14
[17] = test system: OVCAR-5
[18] = test system: HL-60
[19] = test system: UACC-257
[20] = test system: A549
[21] = test system: SK-OV-3
[22] = test system: SK-MEL-2
[23] = test system: RXF 393
[24] = test system: DU-145
[25] = test system: SR
[26] = test system: RPMI-8226
[27] = test system: HOP-92
[28] = test system: T47D
[29] = test system: BT-549
[30] = test system: SF-268
[31] = test system: HCT-15
[32] = test system: MCF7
[33] = test system: MDA-MB-435
[34] = test system: HT-29
[35] = test system: SF-539
[36] = test system: SN12C
[37] = test system: HOP-62
[38] = test system: MOLT-4
[39] = test system: UACC-62
[40] = test system: OVCAR-4
[41] = test system: SNB-19
[42] = test system: Hs-578T
[43] = test system: NCI-H460
[44] = test system: SK-MEL-28
[45] = test system: HCT-116
[46] = test system: K562
[47] = test system: SK-MEL-5
[48] = test system: A498
[49] = test system: SNB-75
[50] = test system: PC-3
[51] = test system: HCC 2998
[52] = test system: NCI/ADR-RES
[53] = test system: ACHN
[54] = test system: TK-10
[55] = test system: U-251
[56] = test system: KM12

## CC(C)(C)OC(=O)N(CCCCNC(=O)OCc1ccccc1)CCCNC(=O)OCc1ccccc1
[1]
  GI50: 1.96 µM (inactive)
[2]
  GI50: 5.7 µM (inactive)
[3]
  GI50: > 100 µM (inactive)
[4]
  GI50: 71 µM (inactive)
[5]
  GI50: 25.9 µM (inactive)
[6]
  GI50: 4.06 µM (inactive)
[7]
  GI50: 90.2 µM (inactive)
[8]
  GI50: 32.4 µM (inactive)
[9]
  GI50: 50.4 µM (inactive)
[10]
  GI50: 91 µM (inactive)
[11]
  GI50: > 100 µM (inactive)
[12]
  GI50: 21.6 µM (inactive)
[13]
  GI50: 16.3 µM (inactive)
[14]
  GI50: 16.5 µM (inactive)
[15]
  GI50: > 100 µM (inactive)
[16]
  GI50: 51.8 µM (inactive)
[17]
  GI50: > 100 µM (inactive)
[18]
  GI50: 5.28 µM (inactive)
[19]
  GI50: 26.4 µM (inactive)
[20]
  GI50: 9.71 µM (inactive)
[21]
  GI50: > 100 µM (inactive)
[22]
  GI50: 55.7 µM (inactive)
[23]
  GI50: 30 µM (inactive)
[24]
  GI50: > 100 µM (inactive)
[25]
  GI50: 9.68 µM (inactive)
[26]
  GI50: 12.6 µM (inactive)
[27]
  GI50: 23.4 µM (inactive)
[28]
  GI50: 5.19 µM (inactive)
[29]
  GI50: 53 µM (inactive)
[30]
  GI50: > 100 µM (inactive)
[31]
  GI50: > 100 µM
[32]
  GI50: 33.3 µM (inactive)
[33]
  GI50: 35.8 µM (inactive)
[34]
  GI50: 18.5 µM (inactive)
[35]
  GI50: > 100 µM (inactive)
[36]
  GI50: 53.3 µM (inactive)
[37]
  GI50: > 100 µM (inactive)
[38]
  GI50: 3.27 µM (inactive)
[39]
  GI50: 87.9 µM (inactive)
[40]
  GI50: 33 µM (inactive)
[41]
  GI50: > 100 µM (inactive)
[42]
  GI50: > 100 µM (inactive)
[43]
  GI50: 38.2 µM (inactive)
[44]
  GI50: > 100 µM (inactive)
[45]
  GI50: 41.8 µM (inactive)
[46]
  GI50: 23.3 µM (inactive)
[47]
  GI50: 5.93 µM (inactive)
[48]
  GI50: 21.8 µM (inactive)
[49]
  GI50: 51.9 µM (inactive)
[50]
  GI50: 10.7 µM (inactive)
[51]
  GI50: 98.6 µM (inactive)
[52]
  GI50: 8.59 µM (inactive)
[53]
  GI50: 9.86 µM (inactive)
[54]
  GI50: > 100 µM (inactive)
[55]
  GI50: 35.6 µM (inactive)
[56]
  GI50: 35.5 µM (inactive)
